Experimental data as given in patent publication US20260232713A1, “PLECOMACROLIDE DERIVATIVES FOR MHC-I NEF DOWNMODULATION” (priority 2022, published 2026).
Where two headings read alike, the source gives them in different places.

Assays:
HIV-Nef [1] = biological target: T1, HIV-Nef (Human immunodeficiency virus type 1, UniProt P03406); experiment: Inhibition of HIV-Nef downmodulation of MHC-I HLA-A2 on the surface of HIV ΔGPE infected primary CD4+ T cells (flow cytometry); assay type: cell-based
T1 sequence (P03406 2-206): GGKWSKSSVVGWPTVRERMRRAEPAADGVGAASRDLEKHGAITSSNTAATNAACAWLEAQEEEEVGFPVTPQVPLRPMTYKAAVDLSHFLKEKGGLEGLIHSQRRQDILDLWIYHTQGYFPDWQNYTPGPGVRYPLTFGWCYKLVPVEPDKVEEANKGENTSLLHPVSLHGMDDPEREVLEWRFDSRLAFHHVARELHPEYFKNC

V-ATPase [2] = biological target: T2, V-ATPase (Homo sapiens, UniProt P27449); experiment: Lysosomal acidification (Lysotracker mean fluorescence intensity) as indicator of V-ATPase activity in primary CD4+ T cells; assay type: cell-based
T2 construct: endogenous in cells; host or cells: primary CD4+ T cells (HIV ΔGPE infected) from donor PBMCs
Protocol: (§1) Inhibition of HIV-Nef was measured by assessing its capacity to downmodulate MHC-I HLA-A2 on the surface of primary CD4+ T cells 24-hours after treatment with each compound. V-ATPase inhibition was assessed at the same time point using lysosomal acidification as an indicator of V-ATPase activity. This was measured using a flow cytometric assay that quantified Lysotracker mean fluorescence intensity as previously described (Painter et al., 2020). Cell viability was measured at 24-hour and 72-hour time points using a previously described flow cytometric assay (Painter et al., 2020).
(§2) Anonymized leukocytes isolated by apheresis were obtained from New York Blood Center and peripheral blood mononuclear cells (PBMCs) were isolated by Ficoll-Paque Plus (17144002; GE Healthcare) centrifugation using SepMate tubes (85450; StemCell Technologies) according to the manufacturers protocol. […] Then, 20-24 hours post-PHA activation, 15 mL of R10/PHA medium is removed and replaced with 5 mL of R10+100u/mL Recombinant Human IL-2 (202|L010; R&D Systems). 48 hours after IL-2 stimulation, primary CD4^+ T cells were infected via spinoculation with previously described HIV ΔGPE construct.
(§3) 48 hours after spinoculation, cells were pooled and plated in flat bottom 96-well plate. […] Compounds were thawed at room temperature and diluted in R10 medium to 2× starting concentration.
(§4) All ΔGPE infected cells were collected 24 hours after treatment.
(§5) All statistical analyses were performed using GraphPad Prism software. Curves were generated using GraphPad Prism software using [Inhibitor] vs. response with variable slope (four parameters).

primary CD4+ T cells = experiment: in vitro; conditions: for CC50: read-out: Viability (TC50), mock primary CD4+ T cells, 72 hours after treatment
Protocol: as §1, §2, §3, §4
(§6) All Mock cells were collected 72 hours after treatment.
as §5

in vitro = conditions: human
Protocol: as §1, §2, §3, §4, §6, §5

HIV-Nef [3] = biological target: T1, HIV-Nef; conditions: literature report; cited from earlier work
V-ATPase [4] = conditions: literature report; cited from earlier work
[5] = HLA-A2 surface expression, ΔGPE infected primary CD4+ T cells, 24 hours after treatment
[6] = Lysotracker Red, ΔGPE infected primary CD4+ T cells, 24 hours after treatment, read-out: Lysotracker (V-ATPase IC50, lysosomal neutralization)

T2 sequence (P27449 whole entry, looked up): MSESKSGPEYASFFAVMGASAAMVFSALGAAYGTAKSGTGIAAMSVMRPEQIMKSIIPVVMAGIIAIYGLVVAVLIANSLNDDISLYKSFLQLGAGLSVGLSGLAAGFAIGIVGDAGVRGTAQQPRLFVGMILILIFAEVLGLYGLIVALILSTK

Row | Compound | IC50 (HIV-Nef [1]; [5]) | IC50 (V-ATPase [2]; [6]) | CC50 (primary CD4+ T cells) | other results
1 | 21-Deoxy CMF [Compound S24] | 4.5 nM | 32 nM | 9.4 nM | Viability:Nef (therapeutic window separating Nef IC50 and TC50) (primary CD4+ T cells; ratio TC50 to Nef IC50): 2.2 fold
2 | CO/C1=C\C(C)=C\[C@@H](C)C(=O)[C@@H](C)C/C(C)=C/C=C/[C@H](OC)[C@@H]([C@@H](C)[C@@H](O)[C@H](C)[C@@]2(O)CC(=O)[C@H](C)[C@@H](C(C)C)O2)OC1=O [Compound S18] |  |  |  | Nef (Nef IC50) (HIV-Nef [1]; [5]): above the activity threshold; IC50 (V-ATPase [2]): > 1000 nM; Lysotracker (V-ATPase IC50, lysosomal neutralization) (V-ATPase [2]; Lysotracker Red, ΔGPE infected primary CD4+ T cells, 24 hours after treatment): above the activity threshold; CC50 (in vitro): > 1000 nM
3 | C/C=C/[C@H]1O[C@@H]([C@@H](C)[C@H](O)[C@H](C)[C@H]2OC(=O)/C(OC)=C/C(C)=C/[C@@H](C)[C@@H](O)[C@@H](CC)[C@@H](O)[C@H](C)C/C(C)=C/C=C/[C@@H]2O)C[C@@H](O)[C@@H]1C [Compound S25, 21-Deoxy-16-Hydroxy CMF] | 400 nM | > 1000 nM | > 1000 nM | Fold reduction of activity compared to 6 (HIV-Nef [1]; comparator CMF (6)): over 200 fold
4 | CC[C@H]1OC(=O)[C@H](C)[C@@H](O)[C@H](C)[C@@H](O)[C@@H](C)C[C@@H](C)C(=O)[C@H](C)[C@@H](O)[C@H]1C [Compound S31, 6-deoxyerythronolide B, reference compound] | > 1000 nM | > 1000 nM | > 1000 nM | 
5 | Elaiophylin [Compound S16, reference compound] | 250 nM |  | 160 nM | Fold decrease in Nef potency compared to 2 (HIV-Nef [1]; […]): 20 fold
6 | bafilomycin D |  |  |  | Potency as a Nef inhibitor (previously reported) (HIV-Nef [3]): very poor potency; V-ATPase inhibition (previously reported) (V-ATPase [4]): low level V-ATPase inhibition
